These results are taken from patent publication US8207189B2, “Compound having affinity for amyloid” (Nihon Medi-Physics Co., Ltd., priority 2007, dated 2012).

For data set [1] the following is noted: rats, [11C]-labeled; cited from earlier work.
The nature of data set [2]: partition coefficient based on the octanol extraction method. It is filed as physicochemical. As to conditions: octanol / 10 mmol/L phosphate buffer pH 7.4. The procedure:
Partition coefficients based on the octanol extraction method (hereinafter referred to as log Poctanol) were measured, which are generally known as an indicator of permeability of compounds through the blood-brain barrier (hereinafter referred to as BBB).
A diethyl ether solution of Compound 1 prepared in Example 3 (Example 8), a diethyl ether solution of Compound 2 prepared in Example 6 (Example 9), and a diethyl ether solution of [^123I]-IMPY prepared in Reference Example 1 (Comparative Example 4) were each diluted with 10 mg/mL ascorbic acid-containing physiological saline solution, and adjusted to a radioactive concentration of 20-30 MBq/mL. To 2 mL of octanol, 10 μL each of the prepared sample solutions was added, 2 mL of 10 mmol/L phosphate buffer (pH 7.4) was added, followed by stirring for 30 seconds. After the mixture was centrifuged with a low-speed centrifuge (2000 rpm×60 min.), the octanol layer and the water layer were sampled each in an amount of 1 mL, and subjected to measurement of radioactivity count with an autowell gamma system (Type: ARC-301B, manufactured by Aloka). Using the obtained radioactivity count, log Poctanol was calculated in accordance with the equation (2).
A diethyl ether solution (Example 20) of Compound 4 prepared in Example 16, a diethyl ether solution (Example 21) of Compound 6 prepared in Example 19, and a diethyl ether solution (Comparative Example 7) of [^123I]-IMPY were each diluted with a 10 mg/mL ascorbic acid-containing physiological saline solution to adjust to a radioactive concentration of 20-30 MBq/mL. To 2 mL of octanol, 10 μL each of the prepared sample solution was added, and 2 mL of 10 mmol/L phosphate buffer (pH 7.4) was further added, followed by stirring for 30 seconds. After the mixture was centrifuged with a low-speed centrifuge (2000 rpm×60 min.), the octanol layer and the water layer were sampled each in an amount of 1 mL, and subjected to measurement of radioactivity count with an autowell gamma system (Type: ARC-301B, manufactured by Aloka). Using the obtained radioactivity count, log Poctanol was calculated in accordance with the equation (4).

Data set [3] can be described thus: transferability into brain and clearance after intravenous injection. It is filed as in vivo, rat. Particulars: male Wistar rats, intravenous injection. The protocol:
Using Compound 1 (Example 10) and Compound 2 (Example 11), a time course change of radioactive accumulation in brain of male Wistar rats (7-week old) was measured.
A diethyl ether solution of Compound 1 (Example 10) prepared in Example 3, a diethyl ether solution of Compound 2 (Example 11) prepared in Example 6 and a diethyl ether solution of [^123I]-IMPY (Comparative Example 5) prepared in Reference Example 1 were each diluted with 10 mg/mL ascorbic acid-containing physiological saline solution to adjust to a radioactive concentration of 8-12 MBq/mL. 0.05 mL each of the prepared sample solutions was injected under thiopental anesthesia into the tail vein of the rats. The rats were sacrificed by bleeding from abdominal artery, and brains were removed and subjected to measurement of mass of brains and further subjected to measurement of radioactivity (hereinafter referred to as A in this Example) with a single channel analyzer (detector type: SP-20 manufactured by OHYO KOKEN KOGYO Co., Ltd.) 2, 5, 30 and 60 minutes after the injection. Further, the radioactivity level of the rest of the whole body was measured in the same manner as above (hereinafter referred to as B in this Example). Using these measurement results, radioactive distribution per unit weight of brain (% ID/g) at the respective time points were calculated in accordance with the following formula (3).
Three animals were used for the experiment at the respective time points.
Using Compound 4 and Compound 6, a time course change of radioactive accumulation in brain of male Wistar rats (7-week old) was measured.
Compound 4 (Example 22), Compound 6 (Example 23) and a solution of [^123I]-IMPY (Comparative Example 8) prepared above in Reference Example 1 were each diluted with a 10 mg/mL ascorbic acid-containing physiological saline solution to prepare solutions (20-31 MBq/mL in radioactive concentration). 0.05 mL each of the prepared sample solutions was injected under thiopental anesthesia into the tail vein of the respective Wistar rat (7-week old). The rats were sacrificed by bleeding from abdominal artery, and brains were removed and subjected to measurement of mass of brains and further subjected to measurement of radioactivity (hereinafter referred to as A in this Example) with a single channel analyzer (detector type: SP-20 manufactured by OHYO KOKEN KOGYO Co., Ltd.) 2, 5, 30 and 60 minutes after the injection. Further, the radioactivity level of the rest of the whole body was measured in the same manner as above (hereinafter referred to as B in this Example). Using these measurement results, radioactive distribution per unit weight of brain (% ID/g) at the respective time points were calculated in accordance with the following formula (5).

The target in data set [4] is T1, amyloid (aggregated Aβ1-40) injected into amygdaloid nucleus (Homo sapiens, UniProt P05067).
T1 construct: Aβ1-40 (manufactured by Peptide Institute, INC.) was dissolved in phosphate buffer (pH 7.4); purchased Peptide Institute, INC
As to the kind of experiment: ex vivo autoradiogram using rats of amyloid injected model (Aβ1-40). It is filed as in vivo, rat. Particulars: brain slice 60 minutes after intravenous injection, Aβ1-40. The protocol:
(§1) (1) Aβ1-40 (manufactured by Peptide Institute, INC.) was dissolved in phosphate buffer (pH 7.4) and shaken at 37° C. for 72 hours, to obtain a 1 mg/mL suspension of aggregated Aβ (hereinafter referred to as amyloid suspension in this Example).
(§2) (2) 2.5 μL (corresponding to […]) of the amyloid suspension was injected into an amygdaloid nucleus on one side of a male Wistar rat (7-week old). As a control, 2.5 μL of a phosphate buffered physiological saline solution (pH 7.4) was injected into an amygdaloid nucleus on the other side of the rat. The rats were examined 1 day after the injection of the amyloid suspension and the phosphate buffered physiological saline solution (pH 7.4).
(§3) (3) [^123I]-IMPY was dissolved in a 10 mg/mL ascorbic acid-containing physiological saline solution to obtain a sample solution (29 MBq/mL in radioactivity concentration in the sample solution). This solution was injected under thiopental anesthesia into the rat through the tail vein (dosage: 0.5 mL, dosed radioactivity: 14.5 MBq equivalent).
(§4) (4) Brain was removed 60 minutes after the injection to prepare a brain slice of 10 μm in thickness with a microtome (type: CM3050S, manufactured by LEICA). The brain slice was exposed to an imaging plate for 20 hours, and then image analysis was carried out by use of a Bio-imaging Analyzer (type: BAS-2500; manufactured by FUJIFILM Corporation). […]

Data set [5] deals with amyloid (aggregated Aβ1-40) injected into amygdaloid nucleus. Described as above. Particulars: brain slice 60 minutes after intravenous injection. The format is in vivo, rat. The protocol:
as §1, §2, §3, §4

T1 sequence (P05067 672-711): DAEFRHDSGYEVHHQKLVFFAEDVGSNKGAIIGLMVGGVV

`CNc1ccc(/C=C/c2ccc(O)cc2)cc1` [SB-13, (E)-4-methylamino-4′-hydroxystilbene]: in data set [1], the “clearance from normal tissues” value was “it cannot be said that the clearance is sufficiently fast”.

`CN(C)c1ccc(-c2cn3cc([123I])ccc3n2)cc1` [[^123I]-IMPY, reference compound]: the logPoctanol value in data set [2] (Table 4 (Examples 8-9, Comparative Example 4)) stood at 1.9. In data set [2] (Table 6 (Examples 20-21, Comparative Example 7)), this compound registered a logPoctanol value of 2.1. In data set [3] (Table 5), the “Radioactive distribution per unit weight in brain, After 2 min.” value is on record as 1.19 % ID/g; the “Radioactive distribution per unit weight in brain, After 5 min.” value is recorded as 0.97 % ID/g; the “Radioactive distribution per unit weight in brain, After 30 min.” value is reported as 0.23 % ID/g; the “Radioactive distribution per unit weight in brain, After 60 min.” value was 0.09 % ID/g. In data set [3] (Table 7), the “Radioactive distribution per unit weight in brain, After 2 min.” value was determined as 1.19 % ID/g; the “Radioactive distribution per unit weight in brain, After 5 min.” value turned out to be 0.97 % ID/g; the “Radioactive distribution per unit weight in brain, After 30 min.” value was 0.23 % ID/g; the “Radioactive distribution per unit weight in brain, After 60 min.” value is 0.09 % ID/g. The “accumulation of radioactivity in amygdaloid nucleus on the amyloid-injected side” value in data set [4] is given as “marked accumulation of radioactivity”. Moreover, the “accumulation in white matter where amyloid was not injected” value in data set [5] was “non-specific accumulation was observed”.
